US10259815B2, “Gabaergic ligands and their uses” (UWM Research Foundation, Inc., priority 2015, dated 2019)
“Also recorded” adds a separate entry of the source.

Columns and labels:
Sprague Dawley male rats = experiment: Mechanical hyperalgesia (von Frey) in CFA-induced inflammatory pain rat model; type: in vivo; details: for mechanical hyperalgesia in CFA-induced inflammatory pain: cumulative i.p. dosing, 3 days after CFA; for selectivity of antihyperalgesic effect in three-assay comparison: versus rate-suppressing and muscle-relaxant activity
Method: Raw data (paw withdrawal threshold, expressed in g of von Frey filament) was converted to a maximal possible effect value according the following equation: % MPE=[(test threshold(g)−control threshold(g)/(pre-CFA threshold−control threshold)]×100.
Complete Freund's adjuvant (CFA) contains Mycobacterium butyricum, inducing inflammation and an increase in paw thickness. 0.1 mL of CFA was injected in the right hind paw of Sprague Dawley male rats under isoflurane anaesthesia.
Mechanical hyperalgesia. Mechanical hyperalgesia was measured 3 days after CFA treatment. Rats (n=6) were placed in elevated boxes with a mesh floor. Von Frey filaments (expressed in g) were applied perpendicularly to the hindpaws, starting with the lowest filament (1.4 g) then increased until hindpaw withdrawal was observed. After each measurement, rats received the next dose of drug (every 20 min) until the maximum threshold (26 g) was observed. For the antagonist study, rats were pretreated with the benzodiazepine site antagonist flumazenil (10 min) and then received the next dose of drug (every 20 min) until the pre-CFA threshold was observed.
(§1) Drugs. The following drugs were used: HZ166, KRM-II-18B, and KRM-II-81, and were dissolved in a mixture containing 20% Dimethyl sulfoxide (DMSO), 10% Emulphor-620 (Rhodia Inc.), and 70% of 0.9% saline. Flumazenil (purchased from Cayman Chemical Company, MI) was dissolved in a mixture containing 10% ethanol, 40% propylene glycol, and 50% sterile water. Midazolam (Akorn, Inc.) was dissolved in 0.9% saline. Doses were expressed as the weight of the drug in milligrams per kilogram of body weight and drugs were administered intraperitoneally.

Rats [1] = experiment: Food-maintained operant responding (rate response); type: in vivo; details: three-assay comparison
Method: Food-maintained operant responding (rate response). Rats (n=7) were placed in a chamber consisting of two (one active) levers. Rats were trained to press a lever (left) for a food pellet under a multiple-cycle procedure. […] The active period was set on a FR10 schedule and rats could receive a maximum of 5 food pellets. The cue light was terminated either after 5 minutes or once 5 food pellets were delivered. After each active period (every 20 minutes), rats received the next dose of drug for a duration of 2 hours. Data (rate per minute) was collected using Graphic State 3.03 software and interface (Coulbourn Instruments Inc.)
as §1

Rats [2] = experiment: Horizontal wire test; type: in vivo; details: three-assay comparison
Method: Horizontal wire test. Rats (n=10) were lifted by the tail and allowed to grasp a horizontally strung wire with their forepaws and released. The inability to complete this task (within 3 seconds) was recorded 20 minutes after each injection of drug.
as §1

Male Sprague-Dawley rats = experiment: Vogel conflict procedure; type: in vivo; details: i.p. 30 minutes prior; KRM-II-81 significant at 10 mg/kg; chlordiazepoxide 20 mg/kg
Method: FIG. 10 is a graph of the concentration of KRM-II-81 versus percent of control for KRM-II-81 analyzed in the Vogel conflict procedure. After a baseline was established using a vehicle (1% 2-hydroxyethyl cellulose), male Sprague-Dawley rats (n=6-8) were dosed i.p. with either KRM-II-81 (3, 10, 30, or 60 mg/kg) or chlordiazepoxide (20 mg/kg) 30 minutes prior to testing. Results were analyzed using ANOVA (Dunnett's test: *P<0.05; Student t-test: **P<0.05).
Subjects are withheld from water prior to testing. Once given water during testing, they will either be unpunished, where they are free to drink without consequence, or punished, where a small electrical shock is applied after every 20th lick. In vehicle punished, is it is expected that the rats hesitate from drinking due to the anxiousness of being shocked. When given an anxiolytic, the […] will continue to drink water despite the electrical shock.
Experiments were conducted as described in the protocol of Alt et al. (Neuropharmacology 2007, 52, 1482-1487). […]
Apparatus. […] All events were controlled and licking data was recorded by a Compaq computer running MED-PC Version IV (Med Associates Inc., Georgia, Vt., USA).
Sipper tube training. […] The six minutes was broken into two components, the first three minutes was recorded as the unpunished component and the second three minutes were recorded as the punished component. […]

CYP3A4 = CYP3A4 (Homo sapiens, UniProt P08684); experiment: CYP substrate assessment, CYP3A4
Chain of CYP3A4 (P08684 whole entry): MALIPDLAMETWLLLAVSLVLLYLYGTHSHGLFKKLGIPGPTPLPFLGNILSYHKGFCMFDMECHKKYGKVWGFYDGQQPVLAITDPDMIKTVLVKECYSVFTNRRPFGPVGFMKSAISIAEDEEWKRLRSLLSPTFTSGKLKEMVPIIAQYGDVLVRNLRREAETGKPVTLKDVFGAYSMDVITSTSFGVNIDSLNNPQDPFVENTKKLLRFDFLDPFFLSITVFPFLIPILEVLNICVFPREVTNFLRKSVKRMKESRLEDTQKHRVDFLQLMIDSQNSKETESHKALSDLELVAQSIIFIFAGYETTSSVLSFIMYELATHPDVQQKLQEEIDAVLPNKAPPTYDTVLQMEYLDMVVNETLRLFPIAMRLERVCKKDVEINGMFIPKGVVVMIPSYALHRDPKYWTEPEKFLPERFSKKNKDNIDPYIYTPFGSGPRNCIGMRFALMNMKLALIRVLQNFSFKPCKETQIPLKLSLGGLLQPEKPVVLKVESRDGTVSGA

CYP2D6 = CYP2D6 (Homo sapiens, UniProt P10635); experiment: CYP substrate assessment, CYP2D6
Chain of CYP2D6 (P10635 whole entry): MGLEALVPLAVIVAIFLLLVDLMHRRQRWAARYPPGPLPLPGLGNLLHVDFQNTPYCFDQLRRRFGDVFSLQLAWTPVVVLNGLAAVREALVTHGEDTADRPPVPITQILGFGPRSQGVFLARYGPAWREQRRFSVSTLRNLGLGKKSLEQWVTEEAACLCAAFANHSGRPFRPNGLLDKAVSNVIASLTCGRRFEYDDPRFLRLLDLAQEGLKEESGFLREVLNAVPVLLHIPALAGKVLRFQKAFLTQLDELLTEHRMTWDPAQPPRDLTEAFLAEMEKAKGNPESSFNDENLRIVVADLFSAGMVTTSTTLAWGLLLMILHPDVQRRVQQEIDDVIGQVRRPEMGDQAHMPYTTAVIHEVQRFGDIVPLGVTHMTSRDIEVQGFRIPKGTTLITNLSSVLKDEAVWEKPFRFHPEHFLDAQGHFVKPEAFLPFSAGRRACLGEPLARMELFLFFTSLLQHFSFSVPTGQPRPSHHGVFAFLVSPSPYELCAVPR

C#Cc1ccc2c(c1)C(c1ccccc1F)=NCc1c(-c3cnco3)ncn1-2 [KRM-II-18B, 5-(8-Ethynyl-6-(2-fluorophenyl)-4H-benzo[f]imidazo[1,5-a][1,4]diazepin-3-yl)oxazole]
mechanical hyperalgesia in CFA-induced inflammatory pain (Sprague Dawley male rats): much more active against hyperalgesia; also recorded: dose-dependently attenuated mechanical hyperalgesia | selectivity of antihyperalgesic effect in three-assay comparison (Sprague Dawley male rats): selectively produce antihyperalgesic effect | rate-suppressing activity, doses relative to antihyperalgesic doses (Rats [1]): much larger doses | muscle-relaxant activity, doses relative to antihyperalgesic doses (Rats [2]): much larger doses

C#Cc1ccc2c(c1)C(c1ccccn1)=NCc1c(-c3cnco3)ncn1-2 [KRM-II-81, 5-(8-Ethynyl-6-(pyridin-2-yl)-4H-benzo[f]imidazo[1,5-a][1,4]diazepin-3-yl)oxazole]
punished licking compared to control (Male Sprague-Dawley rats): significant increase in punished licking | mechanical hyperalgesia in CFA-induced inflammatory pain (Sprague Dawley male rats): much more active against hyperalgesia; also recorded: dose-dependently attenuated mechanical hyperalgesia | selectivity of antihyperalgesic effect in three-assay comparison (Sprague Dawley male rats): selectively produce antihyperalgesic effect | rate-suppressing activity, doses relative to antihyperalgesic doses (Rats [1]): much larger doses | muscle-relaxant activity, doses relative to antihyperalgesic doses (Rats [2]): much larger doses | substrate of CYP3A4 (CYP3A4): not found to be a substrate | substrate of CYP2D6 (CYP2D6): not found to be a substrate
